The values below come from patent publication KR20130112248A, “피라졸로피리미딘 유도체 화합물, 이를 포함하는 산화질소 생성 억제용 조성물 및 뇌신경 질환 예방 및 치료용 약학적 조성물” (한국과학기술연구원, priority 2012, dated 2013).

One assay deals with NO production in BV-2 cells [NO 생성; BV-2 세포]. Briefly: Nitric oxide (NO) quantification (nitrite, Griess reaction) in LPS-activated BV-2 cells. In kind it is cell-based. The conditions noted are these: 20 μM, LPS 0.2 ㎍/mL, 24 h co-treatment, nitrite by Griess at 540 nm. In general terms: The Griess reaction detects nitrite, a stable product of nitric oxide.
On to “N-(2-메톡시벤질)-6-(메틸설파이닐)-1-페닐-1H-피라졸로[3,4-d]피리미딘-4-아민 [화합물 22c]”, for which the “NO (% of LPS)” value is listed as 55±4 % of LPS.

Regarding “1-(2-메톡시펜에틸)-N-(4-메톡시벤질)-6-(메틸설포닐)-1H-피라졸로[3,4-d]피리미딘-4-아민 [화합물 23zb]”, the “NO (% of LPS)” value is 49±2.9 % of LPS.

Staying with this assay, now noted: 20 μM, LPS 0.2 ㎍/mL, 24 h co-treatment, nitrite by Griess at 540 nm, 1440 min.
As for `CSc1nc(NC(C)c2ccccc2)c2cnn(Cc3ccccc3)c2n1` (stereo not shown) [화합물 16k, 1-벤질-6-(메틸티오)-N-(1-페닐에틸)-1H-피라졸로[3,4-d]피리미딘-4-아민], the “NO (% of LPS)” value is reported as 31±0.5 % of LPS.

The assay is the same for the next values; noted with them: Mus musculus, BV-2, 24 h, 20 μM, LPS 0.2 ㎍/mL, 24 h co-treatment, nitrite by Griess at 540 nm.
Take `CSc1nc(NC(C)C2CCCCC2)c2cnn(-c3ccc(C)cc3)c2n1` (stereo not shown) [화합물 21h, N-(1-사이클로헥실에틸)-6-(메틸티오)-1-p-톨릴-1H-피라졸로[3,4-d]피리미딘-4-아민]: the activity at 20 µM stood at 73 ± 2.6%.

For the compound `CSc1nc(NC(c2ccccc2)c2ccc(Cl)cc2)c2cnn(-c3ccccc3)c2n1` (stereo not shown) [화합물 15z, N-((4-클로로페닐)(페닐)메틸)-6-(메틸티오)-1-페닐-1H-피라졸로[3,4-d]피리미딘-4-아민], the activity at 20 µM came out at 46 ± 0.6%.

With `CSc1nc(NCc2ccccc2Cl)c2cnn(-c3ccc(C)cc3)c2n1` [화합물 21a, N-(2-클로로벤질)-6-(메틸티오)-1-p-톨릴-1H-피라졸로[3,4-d]피리미딘-4-아민], the activity at 20 µM was 37 ± 10.7%.

In the case of `COc1ccc(CNc2nc(SC)nc3c2cnn3-c2ccc(C)cc2)cc1` [화합물 21e, N-(4-메톡시벤질)-6-(메틸티오)-1-p-톨릴-1H-피라졸로[3,4-d]피리미딘-4-아민], the activity at 20 µM was 39 ± 3%.

In the case of `COc1cccc(CNc2nc(SC)nc3[nH]ncc23)c1` [6i, 4-(3-메톡시벤질)아미노-6-(메틸티오)피라졸로[3,4-d]피리미딘], the activity at 20 µM came out at 48 ± 10%.

Take `COc1ccccc1CNc1nc(S(C)(=O)=O)nc2c1cnn2-c1ccccc1` [화합물 23c, N-(2-메톡시벤질)-6-(메틸설포닐)-1-페닐-1H-피라졸로[3,4-d]피리미딘-4-아민]: the activity at 20 µM is 41 ± 2.3%.

In the case of `CSc1nc(NC(C)C2CCCCC2)c2cn[nH]c2n1` (stereo not shown) [6j, 4-(1-사이클로헥실에틸)아미노-6-(메틸티오)피라졸로[3,4-d]피리미딘], the activity at 20 µM came out at 66 ± 10%.

Take `CSc1nc(Cl)c2cnn(CCNC(=O)OC(C)(C)C)c2n1` [5d, 1-[N-t-Boc-(2-아미노에틸)]-4-클로로-6-(m메틸티오)피라졸로[3,4-d]피리미딘]: the activity at 20 µM was 48 ± 4%.

Consider `COc1ccccc1CCn1ncc2c(NCc3ccccc3)nc(SC)nc21` [화합물 19e, 1-(2-메톡시펜에틸)-N-벤질-6-(메틸티오)-1H-피라졸로[3,4-d]피리미딘-4-아민], for which the activity at 20 µM was 60 ± 5.9%.

`C=CCn1ncc2c(NCc3ccccn3)nc(SC)nc21` [화합물 13n, 1-알릴-6-(메틸티오)-N-((피리딘-2-일)메틸)-1H-피라졸로[3,4-d]피리미딘-4-아민]: the activity at 20 µM was found to be 17.6 ± 0.7%.

With `CSc1nc(NCc2ccc(F)cc2)c2cn[nH]c2n1` [6d, 4-(4-플루오로벤질)아미노-6-(메틸티오)피라졸로[3,4-d]피리미딘], the activity at 20 µM was found to be 84 ± 8%.

Consider `C[S+]([O-])c1nc(NCc2ccccc2Cl)c2cnn(-c3ccccc3)c2n1` (stereo not shown) [화합물 22a, N-(2-클로로벤질)-6-(메틸설파이닐)-1-페닐-1H-피라졸로[3,4-d]피리미딘-4-아민], for which the activity at 20 µM is 24 ± 12.9%.

Take `COc1ccc(CNc2nc(SC)nc3c2cnn3CCO)cc1` [화합물 27e, 1-(1-하이드록시에틸)-4-(4-메톡시벤질)아미노-6-(메틸티오)피라졸로[3,4-d]피리미딘]: the activity at 20 µM was 56 ± 6%.

In the case of `COc1cccc(CNc2nc(SC)nc3c2cnn3Cc2ccccc2)c1` [화합물 16zf, N-(3-메톡시벤질)-1-벤질-6-(메틸티오)-1H-피라졸로[3,4-d]피리미딘-4-아민], the activity at 20 µM came to 49 ± 0.6%.

As for `COc1ccccc1CCn1ncc2c(Cl)nc(SC)nc21` [5k, 1-(2-메톡시펜에틸)-4-클로로-6-(메틸티오)-1H-피라졸로[3,4-d]피리미딘], the activity at 20 µM came to 5 ± 62.9%.

In the case of `CSc1nc(N(CCO)CCO)c2cn[nH]c2n1` [6o, 4-(디-2-하이드로에틸)아미노-6-(메틸티오)피라졸로[3,4-d]피리미딘], the activity at 20 µM worked out at 106 ± 10%.

In the case of `C=CCn1ncc2c(NCc3ccc(F)cc3)nc(SC)nc21` [화합물 13d, 1-알릴-4-(4-플루오로벤질)아미노-6-(메틸티오)피라졸로[3,4-d]피리미딘], the activity at 20 µM is 14 ± 39%.

As for `CSc1nc(SCC(C)C)c2cnn(Cc3ccccc3)c2n1` [화합물 16n, 1-벤질-4-(이소부틸티오)-6-(메틸티오)-1H-피라졸로[3,4-d]피리미딘], the activity at 20 µM was determined as 56 ± 4.5%.

With `CSc1nc(N[C@H](C)c2ccccc2)c2cn[nH]c2n1` [6k, (R)-4-(1-페닐에틸)아미노-6-(메틸티오)피라졸로[3,4-d]피리미딘], the activity at 20 µM came to 16 ± 17%.

Consider `CSc1nc(NCc2ccccc2)c2cnn(C(C)(C)C)c2n1` [화합물 17a, 1-t-뷰틸-4-벤질아미노-6-(메틸티오)피라졸로[3,4-d]피리미딘], for which the activity at 20 µM was 73 ± 3%.

Turning to `COc1ccc(Sc2nc(SC)nc3c2cnn3Cc2ccccc2)cc1` [화합물 16q, 4-(4-메톡시페닐티오)-1-벤질-6-(메틸티오)-1H-피라졸로[3,4-d]피리미딘], the activity at 20 µM was determined as 40 ± 1.8%.

For the compound `CSc1nc(Sc2ccc(Cl)cc2)c2cnn(Cc3ccccc3)c2n1` [화합물 16r, 4-(4-클로로페닐티오)-1-벤질-6-(메틸티오)-1H-피라졸로[3,4-d]피리미딘], the activity at 20 µM stood at 20 ± 1.9%.

For the compound `CSc1nc(Sc2ccc(C)cc2)c2cnn(Cc3ccccc3)c2n1` [화합물 16p, 4-(p-톨릴티오)-1-벤질-6-(메틸티오)-1H-피라졸로[3,4-d]피리미딘], the activity at 20 µM was 34 ± 1.7%.

`COc1ccccc1CNc1nc(S(C)(=O)=O)nc2c1cnn2-c1ccc(F)cc1` [화합물 23i, N-(2-메톡시벤질)-1-(4-플루오로페닐)-6-(메틸설포닐)-1H-피라졸로[3,4-d]피리미딘-4-아민]: the activity at 20 µM amounted to 35 ± 7.3%.

As to `CSc1nc(NCc2ccccn2)c2c(-c3ccccc3)nn(-c3ccccc3)c2n1` [화합물 31f, 1-페닐-3-페닐-4-(피리딘-2-일)메틸아미노-6-(메틸티오)피라졸로[3,4-d]피리미딘], the activity at 20 µM came to 100 ± 5%.

Turning to `CSc1nc2c(cnn2Cc2ccccc2)c(=S)[nH]1` [9c, 1-벤질-6-(메틸티오)피라졸로[3,4-d]피리미딘-4-티온], the activity at 20 µM is 79 ± 5%.

For `CC(Nc1nc(S(C)(=O)=O)nc2c1cnn2-c1ccccc1)C1CCCCC1` (stereo not shown) [화합물 23f, N-(1-사이클로헥실에틸)-6-(메틸설포닐)-1-페닐-1H-피라졸로[3,4-d]피리미딘-4-아민], the activity at 20 µM came out at 23 ± 0.6%.

In the case of `COc1ccc(CNc2nc(S(C)(=O)=O)nc3c2cnn3CCc2ccccc2OC)cc1` [화합물 23za, 1-(2-메톡시펜에틸)-N-(4-메톡시벤질)-6-(메틸설포닐)-1H-피라졸로[3,4-d]피리미딘-4-아민], the activity at 20 µM stood at 56 ± 3.6%.

For the compound `COc1cccc(CCn2ncc3c(NCc4ccccc4C)nc(S(C)(=O)=O)nc32)c1` [화합물 22m, N-(2-메틸벤질)-1-(3-메톡시펜에틸)-6-(메틸설포닐)-1H-피라졸로[3,4-d]피리미딘-4-아민], the activity at 20 µM was 62 ± 2.8%.

On to `C=CCNc1nc(SC)nc2c1c(-c1ccccc1)nn2Cc1ccccc1` [32d, 1-벤질-3-페닐-4-알릴아미노-6-(메틸티오)피라졸로[3,4-d]피리미딘], for which the activity at 20 µM came out at 46 ± 2%.

On to `CSc1nc(Cl)c2cnn(CCOC3CCCCO3)c2n1` (stereo not shown) [5c, 1-[2-(테트라하이드로피란-2-일옥시)에틸]-4-클로로-6-(메틸티오)피라졸로[3,4-d]피리미딘], for which the activity at 20 µM was found to be 49 ± 9%.

With `CSc1nc(NCc2ccc(Cl)cc2)c2cnn(CCNC(=O)OC(C)(C)C)c2n1` [화합물 14e, 2-(4-(4-클로로벤질아미노)-6-(메틸티오)-1H-피라졸로[3,4-d]피리미딘-1-일)에틸카바메이트], the activity at 20 µM was 26.8 ± 0.1%.

Regarding `C=CCNc1nc(SC)nc2c1cnn2CC=C` [화합물 13b, 1-알릴-4-알릴아미노-6-(메틸티오)피라졸로[3,4-d]피리미딘], the activity at 20 µM came to 86 ± 9%.

As for `CCCCNc1nc(SC)nc2[nH]ncc12` [6e, 4-n-뷰틸아미노-6-(메틸티오)피라졸로[3,4-d]피리미딘], the activity at 20 µM stood at 83 ± 9%.

For the compound `CSc1nc(NCc2ccccc2Cl)c2cnn(CCO)c2n1` [화합물 27h, 2-(4-(2-클로로벤질아미노)-6-(메틸티오)-1H-피라졸로[3,4-d]피리미딘-1-일)에탄올], the activity at 20 µM is 87.4 ± 1.2%.

Regarding `CSc1nc(SCCCCl)c2cnn(Cc3ccccc3)c2n1` [화합물 16o, 4-(3-클로로프로필티오)-1-벤질-6-(메틸티오)-1H-피라졸로[3,4-d]피리미딘], the activity at 20 µM stood at 43 ± 4.6%.

For `COc1ccccc1CNc1nc([S+](C)[O-])nc2c1cnn2-c1ccccc1` (stereo not shown) [화합물 22b, N-(2-메톡시벤질)-6-(메틸설파이닐)-1-페닐-1H-피라졸로[3,4-d]피리미딘-4-아민], the activity at 20 µM came to 28 ± 4.1%.

As for `CSc1nc(NCc2ccc(F)cc2)c2cnn(C(C)(C)C)c2n1` [화합물 17c, 1-t-뷰틸-4-(4-플루오로벤질)아미노-6-(메틸티오)피라졸로[3,4-d]피리미딘], the activity at 20 µM amounted to 59 ± 2%.

Turning to `COc1ccccc1CNc1nc(SC)nc2c1cnn2C` [화합물 12j, 1-메틸-4-(2-메톡시벤질)아미노-6-(메틸티오)피라졸로[3,4-d]피리미딘], the activity at 20 µM was 40 ± 5%.

On to `CSc1nc(NCc2ccccc2)c2cnn(-c3ccccc3)c2n1` [화합물 15a, 1-페닐-4-벤질아미노-6-(메틸티오)피라졸로[3,4-d]피리미딘], for which the activity at 20 µM stood at 53 ± 12%.

As for `COc1cccc(CCn2ncc3c(NCc4ccccc4Cl)nc(S(C)(=O)=O)nc32)c1` [화합물 23w, N-(2-클로로벤질)-1-(3-메톡시펜에틸)-6-(메틸설포닐)-1H-피라졸로[3,4-d]피리미딘-4-아민], the activity at 20 µM worked out at 54 ± 2.3%.

In the case of `COc1cccc(CNc2nc(SC)nc3c2cnn3C)c1` [화합물 12k, 1-메틸-4-(3-메톡시벤질)아미노-6-(메틸티오)피라졸로[3,4-d]피리미딘], the activity at 20 µM came to 94 ± 5%.

Turning to `CSc1nc(NCc2ccccc2Cl)c2cn[nH]c2n1` [6w, N-(2-클로로벤질)-6-(메틸티오)-1H-피라졸로[3,4-d]피리미딘-4-아민], the activity at 20 µM stood at 46 ± 2.9%.

With `CSc1nc(NCc2ccc(C)cc2)c2cnn(Cc3ccccc3)c2n1` [화합물 16ze, N-(4-메틸벤질)-1-벤질-6-(메틸티오)-1H-피라졸로[3,4-d]피리미딘-4-아민], the activity at 20 µM came to 51 ± 3.4%.

For `CSc1nc(NCc2ccccc2C)c2cnn(-c3ccc(F)cc3)c2n1` [화합물 20c, N-(2-메틸벤질)-1-(4-프루오로페닐)-6-(메틸티오)-1H-피라졸로[3,4-d]피리미딘-4-아민], the activity at 20 µM turned out to be 47 ± 8%.

For `CSc1nc(NCc2ccc(F)cc2)c2cnn(Cc3ccccc3)c2n1` [화합물 16c, 1-벤질-4-(4-플루오로벤질)아미노-6-(메틸티오)피라졸로[3,4-d]피리미딘], the activity at 20 µM amounted to 32.3 ± 3%.

With `COc1ccc([C@H](C)Nc2nc(SC)nc3c2cnn3Cc2ccccc2)cc1` [화합물 16zb, 1-벤질-N-((S)-1-(4-메톡시페닐)에틸)-6-(메틸티오)-1H-피라졸로[3,4-d]피리미딘-4-아민], the activity at 20 µM stood at 49 ± 2.4%.

The assay is the same for the next values; noted with them: Mus musculus, BV-2, 24 h, 30 μM, LPS 0.2 ㎍/mL, 24 h co-treatment, nitrite by Griess at 540 nm.
`COc1nc(SC)nc2[nH]ncc12` [10a, 4-메톡시-6-(메틸티오)피라졸로[3,4-d]피리미딘]: the activity at 30 µM is 91 ± 2.4%.

Still in this assay, the particulars now being: Mus musculus, BV-2, 24 h, 50 μM (printed in cell of the 30 μM column), LPS 0.2 ㎍/mL, 24 h co-treatment.
For `CSc1nc(NCc2ccccc2)c2cn[nH]c2n1` [6a, 4-벤질아미노-6-(메틸티오)피라졸로[3,4-d]피리미딘], the activity at 50 µM was 35 ± 4%.
